In DBAASP:
Values after ≈ are worked out from the molar mass of the structure shown. One block for each molecule: values may come before it.

Tests used:
Assay in all cases: ≥ marks a high value that may be exact or a test limit, other limits are often not marked, values filed in µg/mL are converted to µM
[1] = tested on: Escherichia coli NBRC 3972
[2] = tested on: Bacillus subtilis NBRC 3009
[3] = tested on: Staphylococcus aureus NBRC 13276
[4] = tested on: Staphylococcus aureus ATCC 49476
[5] = tested on: Pseudomonas aeruginosa ATCC 27853
Staphylococcus aureus MR = tested on: Staphylococcus aureus MR
Candida albicans = tested on: Candida albicans
[6] = tested on: Staphylococcus aureus NCTC 12981
[7] = tested on: Escherichia coli NCTC 10418
Bacillus cereus = tested on: Bacillus cereus
[8] = tested on: Pseudomonas aeruginosa NCTC 13437
Pasteurella multocida = tested on: Pasteurella multocida
Staphylococcus aureus 15 = tested on: Staphylococcus aureus 15
[9] = tested on: Candida albicans NCPF 3179
[10] = tested on: Enterococcus faecalis NCTC 775
Bacillus cereus C737 = tested on: Bacillus cereus C737
Leuconostoc lactis = tested on: Leuconostoc lactis
Escherichia coli UB1005 = tested on: Escherichia coli UB1005
Listeria innocua = tested on: Listeria innocua
[11] = tested on: Staphylococcus epidermidis
Streptococcus uberis = tested on: Streptococcus uberis
Escherichia coli = tested on: Escherichia coli
Staphylococcus aureus = tested on: Staphylococcus aureus
[12] = tested on: Acinetobacter baumannii ATCC 17978
[13] = tested on: Escherichia coli NCTC 12923
[14] = tested on: Staphylococcus aureus ATCC 9144
[15] = tested on: Pseudomonas aeruginosa PAO1
Micrococcus luteus = tested on: Micrococcus luteus
[16] = tested on: Klebsiella pneumoniae NCTC 13368
[17] = tested on: Enterococcus faecalis NCTC 12201
[18] = tested on: Batrachochytrium dendrobatidis
[19] = tested on: Bifidobacterium longum subsp. infantis
[20] = tested on: Klebsiella aerogenes ATCC 13048
[21] = tested on: Acinetobacter baumannii ATCC 7978
[22] = tested on: Staphylococcus aureus ATCC 29231
[23] = tested on: Staphylococcus aureus MW2
[24] = tested on: Salmonella enterica subsp. enterica serovar Enteritidis
[25] = tested on: Staphylococcus aureus ATCC 43300
[26] = tested on: Candida albicans ATCC 10231
[27] = tested on: Escherichia coli ATCC 25922
[28] = tested on: Cryptococcus neoformans ATCC 32264
Salmonella sp. = tested on: Salmonella sp.
Yersinia enterocolitica = tested on: Yersinia enterocolitica
[29] = tested on: Staphylococcus aureus ATCC 29213

MIC [1]: ≥ 100 µM
MIC [2]: 1.8 µM (≈ 3.08 µg/mL)
MIC [3]: ≥ 35.4 µM
Compound: CC[C@H](C)[C@H](NC(=O)[C@H](C)NC(=O)[C@H](CO)NC(=O)[C@@H](NC(=O)[C@H](CC(C)C)NC(=O)CNC(=O)CNC(=O)[C@@H](NC(=O)[C@H](CC(C)C)NC(=O)[C@H](CO)NC(=O)[C@@H]1CCCN1C(=O)[C@H](CC(C)C)NC(=O)[C@H](Cc1ccccc1)NC(=O)[C@H](Cc1ccccc1)NC(=O)[C@@H](N)Cc1ccccc1)[C@@H](C)CC)C(C)C)C(=O)N[C@@H](CCCCN)C(N)=O [FFFLPSLIGGLVSAIK]

MIC (Bacillus cereus): 30.3 µM (≈ 50 µg/mL)
MIC [8]: ≥ 77.6 µM
MIC (Pasteurella multocida): ≥ 60.6 µM
MIC (Staphylococcus aureus 15): 19.4 µM (≈ 32 µg/mL)
MIC [9]: 9.7 µM (≈ 16 µg/mL)
MIC [10]: 27.4 µM (≈ 45.2 µg/mL)
MIC (Bacillus cereus C737): ≥ 77.6 µM
MIC (Leuconostoc lactis): 7.27 µM (≈ 12 µg/mL)
MIC (Escherichia coli UB1005): ≥ 38.8 µM
MIC (Listeria innocua): 30.3 µM (≈ 50 µg/mL)
MIC [11]: ≥ 60.6 µM
MIC (Streptococcus uberis): ≥ 60.6 µM
MIC (Escherichia coli): > 60.6 µM
MIC (Staphylococcus aureus): 30.3 µM (≈ 50 µg/mL)
MIC [12]: 4.85 µM (≈ 8 µg/mL)
MIC [13]: 9.7 µM (≈ 16 µg/mL)
MIC [14]: 4.85 µM (≈ 8 µg/mL)
MIC [15]: > 77.6 µM
MIC (Micrococcus luteus): ≥ 60.6 µM
MIC [16]: ≥ 38.8 µM
MIC [17]: ≥ 38.8 µM
Compound: CC[C@H](C)[C@H](NC(=O)[C@H](CC(=O)O)NC(=O)[C@H](Cc1ccccc1)NC(=O)[C@H](CC(C)C)NC(=O)CN)C(=O)N[C@H](C(=O)N[C@@H](CCCCN)C(=O)N[C@@H](CCCCN)C(=O)N[C@H](C(=O)N[C@H](C(=O)NCC(=O)N[C@@H](C)C(=O)N[C@@H](Cc1ccccc1)C(=O)NCC(=O)N[C@@H](CO)C(=O)N[C@@H](CC(C)C)C(N)=O)C(C)C)C(C)C)C(C)C [GLFDIVKKVVGAFGSL]

MIC (Bacillus cereus): 30.9 µM (≈ 50 µg/mL)
MIC (Pasteurella multocida): ≥ 61.9 µM
MIC [18]: ≥ 200 µM
MIC (Leuconostoc lactis): 3.71 µM (≈ 6 µg/mL)
MIC (Listeria innocua): 3.71 µM (≈ 6 µg/mL)
MIC [11]: 30.9 µM (≈ 50 µg/mL)
MIC (Streptococcus uberis): ≥ 61.9 µM
MIC (Escherichia coli): > 61.9 µM
MIC (Staphylococcus aureus): > 61.9 µM
MIC (Micrococcus luteus): ≥ 61.9 µM
Compound: CC[C@H](C)[C@H](NC(=O)[C@H](CC(=O)O)NC(=O)[C@H](CC(C)C)NC(=O)[C@H](CC(C)C)NC(=O)CN)C(=O)N[C@H](C(=O)N[C@@H](CCCCN)C(=O)N[C@@H](CCCCN)C(=O)N[C@H](C(=O)N[C@H](C(=O)NCC(=O)N[C@@H](C)C(=O)N[C@@H](Cc1ccccc1)C(=O)NCC(=O)N[C@@H](CO)C(=O)N[C@@H](CC(C)C)C(N)=O)C(C)C)C(C)C)C(C)C [GLLDIVKKVVGAFGSL]

More lines, now with the values behind:

Compound: CC[C@H](C)[C@H](NC(=O)[C@H](C)NC(=O)[C@H](CCCCN)NC(=O)CNC(=O)[C@H](C)NC(=O)[C@H](CO)NC(=O)[C@H](Cc1ccccc1)NC(=O)[C@H](CC(C)C)NC(=O)CNC(=O)CNC(=O)[C@@H](NC(=O)[C@@H](NC(=O)[C@H](Cc1cnc[nH]1)NC(=O)[C@H](Cc1cnc[nH]1)NC(=O)[C@@H](NC(=O)[C@@H](N)Cc1ccccc1)[C@@H](C)CC)[C@@H](C)CC)[C@@H](C)CC)C(=O)N[C@@H](Cc1cnc[nH]1)C(=O)N[C@@H](CO)C(=O)N[C@@H](CC(C)C)C(=O)N[C@H](C(=O)N[C@@H](Cc1cnc[nH]1)C(=O)N[C@@H](CCCN=C(N)N)C(=O)N[C@@H](CCCN=C(N)N)C(=O)N[C@@H](CCCN=C(N)N)C(=O)N[C@@H](CCCN=C(N)N)C(=O)O)[C@@H](C)CC [FIHHIIGGLFSAGKAIHSLIHRRRR]
MIC [4]: 11.1 µM (≈ 32 µg/mL)
MIC [5]: 88.5 µM (≈ 256 µg/mL)
MIC (Staphylococcus aureus MR): 11.1 µM (≈ 32 µg/mL)
MIC (Candida albicans): 88.5 µM (≈ 256 µg/mL)

Compound: NCCCC[C@H](NC(=O)[C@H](Cc1ccccc1)NC(=O)[C@H](CCCCN)NC(=O)[C@@H](N)Cc1ccccc1)C(=O)N[C@@H](Cc1ccccc1)C(N)=O [FKFKF]
MIC [6]: ≥ 179 µM
MIC [7]: ≥ 179 µM

Compound: CC[C@H](C)[C@H](NC(=O)[C@H](CCC(N)=O)NC(=O)[C@H](Cc1cnc[nH]1)NC(=O)[C@@H](NC(=O)[C@@H]1CCCN1C(=O)[C@H](CC(N)=O)NC(=O)[C@H](CC(C)C)NC(=O)[C@@H](N)CC(C)C)[C@@H](C)O)C(=O)N[C@@H](Cc1ccc(O)cc1)C(=O)N1CCC[C@H]1C(=O)N[C@H](C(=O)N[C@H](C(=O)N[C@@H](CCC(N)=O)C(=O)N1CCC[C@H]1C(=O)N[C@@H](CC(C)C)C(=O)N[C@@H](C)C(=O)N1CCC[C@H]1C(=O)N[C@H](C(=O)N[C@@H](Cc1cnc[nH]1)C(=O)N[C@@H](CC(N)=O)C(=O)N1CCC[C@H]1C(=O)N[C@H](C(=O)N[C@@H](CO)C(=O)O)[C@@H](C)CC)C(C)C)[C@@H](C)O)C(C)C [LLNPTHQIYPVTQPLAPVHNPIS]
MIC [19]: ≥ 1180 µM
MIC (Escherichia coli): > 1180 µM
MIC (Staphylococcus aureus): > 1180 µM

Compound: CC[C@H](C)[C@H](NC(=O)[C@H](CCCCN)NC(=O)[C@H](Cc1c[nH]c2ccccc12)NC(=O)[C@@H](N)CC(C)C)C(=O)NCC(=O)N[C@@H](CCCCN)C(=O)N[C@@H](CCCCN)C(=O)N[C@H](C(=O)N[C@@H](Cc1c[nH]c2ccccc12)C(=O)N[C@@H](CCCN=C(N)N)C(=O)N[C@H](C(=O)NCC(=O)O)C(C)C)[C@@H](C)CC [LWKIGKKIWRVG]
MIC [20]: ≥ 86.3 µM
MIC [21]: ≥ 86.3 µM
MIC [22]: ≥ 86.3 µM
MIC [23]: ≥ 86.3 µM

Compound: NC(=O)CC[C@H](NC(=O)[C@H](Cc1c[nH]c2ccccc12)NC(=O)[C@H](Cc1c[nH]c2ccccc12)NC(=O)[C@H](CCCN=C(N)N)NC(=O)[C@H](CCCN=C(N)N)NC(=O)[C@H](Cc1c[nH]c2ccccc12)NC(=O)[C@H](CCC(N)=O)NC(=O)[C@@H](N)CCCN=C(N)N)C(=O)N[C@@H](CCCN=C(N)N)C(N)=O [RQWRRWWQR]
MIC [24]: 8.58 µM (≈ 12.5 µg/mL)
MIC [25]: 17.2 µM (≈ 25 µg/mL)
MIC [26]: 50 µM (≈ 72.8 µg/mL)
MIC [27]: 17.2 µM (≈ 25 µg/mL)
MIC [28]: 12.5 µM (≈ 18.2 µg/mL)
MIC (Escherichia coli): 8.58 µM (≈ 12.5 µg/mL)
MIC (Salmonella sp.): 17.2 µM (≈ 25 µg/mL)
MIC (Yersinia enterocolitica): 17.2 µM (≈ 25 µg/mL)
MIC [29]: 34.3 µM (≈ 50 µg/mL)
